The text below walks through data of ChEMBL document CHEMBL1143598, “1-Methyl-3H-pyrazolo[1,2-a]benzo[1,2,3,4]tetrazin-3-ones. Design, synthesis, and biological activity of new antitumor agents” (2005).

Test [1] in a line: Concentration required to inhibit cell growth of human tumor cell lines (51 cells giving positive results out of 53 cells); Range = 5.75-4.67. The format is functional.
Test [2] can be described thus: Concentration required to inhibit total cell growth of human tumor cell lines (52 cells giving positive results out of 53 cell lines); Range = 5.47-4.34. The conditions noted are these: read-out: pTGI50 (converted). In kind it is functional.
Test [3] is described as follows: Concentration required to inhibit cell death of human tumor cell lines (50 cells giving positive results out of 53 cells); Range = 5.21-4.01. The format is functional. As to conditions: read-out: pLC50 (the source's name) (converted).
A short description of test [4]: Concentration required to inhibit cell growth of human tumor cell lines (55 cells giving positive results out of 55 cells); Range = 6.28-4.59. The format is functional.
A short description of test [5]: Concentration required to inhibit total cell growth of human tumor cell lines (54 cells giving positive results out of 55 cells); Range = 5.72-4.10. The conditions noted are these: read-out: pTGI50 (converted). The format is functional.
A short description of test [6]: Concentration required to inhibit cell death of human tumor cell lines (50 cells giving positive results out of 55 cells); Range = 5.27-4.1. The format is functional. The conditions noted are these: read-out: pLC50 (the source's name) (converted).
The nature of test [7]: Concentration required to inhibit cell death of human tumor cell lines (48 cells giving positive results out of 55 cells); Range = 5.19-4.05. As to conditions: read-out: pLC50 (the source's name) (converted).
A short description of test [8]: Concentration required to inhibit total cell growth of human tumor cell lines (50 cells giving positive results out of 55 cells); Range = 5.45-4.00. The format is functional. As to conditions: read-out: pTGI50 (converted).
A short description of test [9]: Concentration required to inhibit cell growth of human tumor cell lines (54 cells giving positive results out of 55 cells); Range = 5.75-4.50. In kind it is functional.
Test [10] can be described thus: Concentration required to inhibit cell growth of human tumor cell lines (53 cells giving positive results out of 53 cells); Range = 5.85-4.50. The format is functional.
A short description of test [11]: Concentration required to inhibit cell death of human tumor cell lines (49 cells giving positive results out of 53 cells); Range = 5.25-4.11. As to conditions: read-out: pLC50 (the source's name) (converted). The format is functional.
Test [12] is described as follows: Concentration required to inhibit total cell growth of human tumor cell lines (52 cells giving positive results out of 53 cells; Range = 5.53-4.07. In kind it is functional. As to conditions: read-out: pTGI50 (converted).
The nature of test [13]: Concentration required to inhibit cell growth of human tumor cell lines (54 cells giving positive results out of 54 cells); Range = 6.76-4.46. The format is functional.
Test [14] is described as follows: Concentration required to inhibit cell death of human tumor cell lines (46 cells giving positive results out of 54 cells); Range = 5.36-4.01. The format is functional. The conditions noted are these: read-out: pLC50 (the source's name) (converted).
Test [15] can be described thus: Concentration required to inhibit total cell growth of human tumor cell lines (51 cells giving positive results out of 54 cells); Range = 6.14-4.29. In kind it is functional. The conditions noted are these: read-out: pTGI50 (converted).
Test [16] is described as follows: Concentration required to inhibit cell growth of human tumor cell lines (53 cells giving positive results out of 54 cells); Range = 6.05-4.50. The format is functional.
Test [17] in a line: Concentration required to inhibit total cell growth of human tumor cell lines (52 cells giving positive results out of 54 cells); Range = 5.53-4.02. The format is functional. The conditions noted are these: read-out: pTGI50 (converted).
Test [18] in a line: Concentration required to inhibit cell death of human tumor cell lines (45 cells giving positive results out of 54 cells); Range = 5.25-4.05. The format is functional. As to conditions: read-out: pLC50 (the source's name) (converted).
The nature of test [19]: Concentration required to inhibit cell death of human tumor cell lines (40 cells giving positive results out of 55 cells); Range = 4.26-4.06. In kind it is functional. The conditions noted are these: read-out: pLC50 (the source's name) (converted).
Test [20] in a line: Concentration required to inhibit total cell growth of human tumor cell lines (50 cells giving positive results out of 55 cells); Range = 5.23-4.07. In kind it is functional. As to conditions: read-out: pTGI50 (converted).
Test [21] is described as follows: Concentration required to inhibit cell growth of human tumor cell lines (53 cells giving positive results out of 55 cells); Range is 5.68-4.53. In kind it is functional.

`Cc1cc(=O)n2nnc3cc(F)ccc3n12`: the GI50 in [1] is 1780 nM; in [2], 3390 nM. Further, in [3], the CC50 was 6170 nM.
With `Cc1cc(=O)n2nnc3cc(Cl)ccc3n12`, the GI50 was 525 nM in [4] and 1910 nM in test [5]. The CC50 in [6] was 5370 nM.
Take `COc1ccc2c(c1)nnn1c(=O)cc(C)n21`: in [7], the CC50 was 6460 nM. Besides, the values for the GI50 in [8] and in test [9] were 3550 nM and 1780 nM, respectively.
As for `Cc1ccc2c(c1)nnn1c(=O)cc(C)n21`, the GI50 in test [10] was 1410 nM; in test [12], 2950 nM. The CC50 in test [11] was 5620 nM.
Consider `Cc1ccc2nnn3c(=O)cc(C)n3c2c1`, for which the results for the GI50 in test [13] and in test [15] were 174 nM and 724 nM, respectively. For the same compound, the CC50 in test [14] is 4370 nM.
Consider `Cc1cc(=O)n2nnc3ccc(Cl)cc3n12`, for which the figures for the GI50 in test [16] and in test [17] were 891 nM and 2950 nM, respectively. Further, the CC50 in test [18] was 5620 nM.
In the case of `Cc1cc(=O)n2nnc3ccccc3n12`, the CC50 in test [19] is 55000 nM. Besides, the GI50 in [20] is 5890 nM; in test [21], 2090 nM.
